Results published in BindingDB's records for doi:10.1016/j.bioorg.2016.07.005 (Hazara University, 2016).
pIC50: −log10 of the molar value.

Columns and labels:
[1] = target: Acetylcholinesterase (Tetronarce californica, UniProt P04058); assay: Acetylcholinesterase Assay; conditions: pH 7.7
Experimental: Total volume of the reaction mixture was 100 µL. It contained 60 µL Na2HPO4 buffer with concentration of 50 mM and pH 7.7. 10 µL test compound (0.5 mM well-1) was added, followed by the addition of 10 µL (0.005 unit well-1) enzyme. […] Then contents were pre-incubated for 10 min at 37 °C. The reaction was initiated by the addition of 10 µL of 0.5 mM well-1 substrate (acetylthiocholine iodide), followed by the addition of 10 µL DTNB (0.5 mM well-1). […] All experiments were carried out with their respective controls in triplicate.

[2] = target: Cholinesterase (Homo sapiens, UniProt P06276); assay: Butyrylcholinesterase Assay; conditions: pH 7.7
Cholinesterase, sequence (P06276 whole entry): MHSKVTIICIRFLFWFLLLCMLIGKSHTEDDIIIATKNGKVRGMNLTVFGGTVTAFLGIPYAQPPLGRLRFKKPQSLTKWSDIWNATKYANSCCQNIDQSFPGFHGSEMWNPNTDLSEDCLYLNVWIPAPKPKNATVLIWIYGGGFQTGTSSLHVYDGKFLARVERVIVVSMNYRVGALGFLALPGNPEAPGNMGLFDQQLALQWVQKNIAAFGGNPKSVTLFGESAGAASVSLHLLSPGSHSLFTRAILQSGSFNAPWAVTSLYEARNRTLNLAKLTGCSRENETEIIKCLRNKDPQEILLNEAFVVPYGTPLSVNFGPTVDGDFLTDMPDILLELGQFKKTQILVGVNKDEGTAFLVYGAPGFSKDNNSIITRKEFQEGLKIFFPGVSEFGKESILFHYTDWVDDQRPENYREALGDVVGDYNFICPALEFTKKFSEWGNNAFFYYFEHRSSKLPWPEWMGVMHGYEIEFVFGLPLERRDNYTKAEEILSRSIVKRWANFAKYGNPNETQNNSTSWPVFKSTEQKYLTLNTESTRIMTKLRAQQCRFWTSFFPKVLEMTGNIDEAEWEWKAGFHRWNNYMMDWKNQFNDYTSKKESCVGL
Experimental: Total volume of the reaction mixture was 100 µL containing 60 µL, Na2HPO4 buffer, 50 mM and pH 7.7. Ten µL test compound 0.5 mM well-1 was added followedby the addition of 10 µL (0.5 unit well-1) BChE (Sigma Inc.). […] The reaction was initiated by the addition of 10 µL of 0.5 mM well-1 substrate (butyrylthiocholine chloride). Followed by the addition of 10 µL DTNB, 0.5 mM well-1. […] All experiments were carried out with their respective controls in triplicate.

Acetylcholinesterase, sequence (P04058 whole entry): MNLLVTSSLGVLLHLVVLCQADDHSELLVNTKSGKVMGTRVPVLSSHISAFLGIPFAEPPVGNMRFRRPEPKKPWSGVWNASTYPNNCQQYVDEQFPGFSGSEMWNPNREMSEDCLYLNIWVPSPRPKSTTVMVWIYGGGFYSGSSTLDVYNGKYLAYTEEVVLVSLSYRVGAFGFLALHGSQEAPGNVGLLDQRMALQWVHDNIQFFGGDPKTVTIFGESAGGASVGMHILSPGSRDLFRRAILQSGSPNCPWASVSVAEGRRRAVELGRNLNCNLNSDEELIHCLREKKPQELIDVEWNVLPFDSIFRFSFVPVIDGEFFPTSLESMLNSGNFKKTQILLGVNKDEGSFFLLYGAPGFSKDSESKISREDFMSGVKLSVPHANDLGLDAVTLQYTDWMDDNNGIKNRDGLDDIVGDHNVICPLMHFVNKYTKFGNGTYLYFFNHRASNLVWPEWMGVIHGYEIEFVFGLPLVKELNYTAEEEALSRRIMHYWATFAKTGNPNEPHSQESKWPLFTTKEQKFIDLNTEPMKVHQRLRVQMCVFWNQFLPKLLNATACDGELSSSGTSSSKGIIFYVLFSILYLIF

O=C(N/N=C\c1ccc(C(F)(F)F)cc1)c1ccccc1O [2-Hydroxy-N'-{(Z)-[4-(trifluoromethyl)phenyl]methylidene} benzohydrazide (18)]
pIC50 [1]: 4.31 | pIC50 [2]: 3.67

O=C(N/N=C\c1cccc(Br)c1)c1ccccc1O [N'-[(Z)-(3-bromophenyl)methylidene]-2-hydroxybenzohydrazide (19)]
pIC50 [1]: 3.81 | pIC50 [2]: 3.92

O=C(N/N=C\c1cccc(O)c1)c1ccccc1O [2-Hydroxy-N'-[(Z)-(3-hydroxyphenyl)methylidene]benzohydrazide (27)]
pIC50 [1]: 3.45

O=C(N/N=C\c1ccc(Cl)cc1Cl)c1ccccc1O [N'-[(Z)-(2,4-dichlorophenyl)methylidene]-2-hydroxybenzohydrazide (6)]
pIC50 [1]: 4.74 | pIC50 [2]: 4.37

O=C(N/N=C\c1ccc(Br)cc1F)c1ccccc1O [N'-[(Z)-(4-bromo-2-fluorophenyl)methylidene]-2-hydroxybenzohydrazide (26)]
pIC50 [1]: 3.43 | pIC50 [2]: 3.35

COc1ccc(/C=N\NC(=O)c2ccccc2O)cc1OCc1ccccc1 [N'-{(Z)-[3-(benzyloxy)-4-methoxyphenyl]methylidene}-2-hydroxybenzohydrazide (16)]
pIC50 [2]: 4.06

O=C(N/N=C\c1cccc(C(F)(F)F)c1)c1ccccc1O [2-Hydroxy-N'-{(Z)-[3-(trifluoromethyl)phenyl]methylidene} benzohydrazide (14)]
pIC50 [1]: 4.25 | pIC50 [2]: 3.95

O=C(N/N=C\c1cccs1)c1ccccc1O [2-Hydroxy-N'-[(Z)-2-thienylmethylidene]benzohydrazide (23)]
pIC50 [1]: 3.37

O=C(N/N=C\c1cc(Cl)cc(Cl)c1O)c1ccccc1O [N'-[(Z)-(3,5-dichloro-2-hydroxyphenyl)methylidene]-2-hydroxybenzohydrazide (24)]
pIC50 [1]: 5.08 | pIC50 [2]: 5.04

COc1cccc(OC)c1/C=N\NC(=O)c1ccccc1O [N'-[(Z)-(2,6-dimethoxyphenyl)methylidene]-2-hydroxybenzohydrazide (2)]
pIC50 [1]: 3.34 | pIC50 [2]: 4.10

CCOc1ccccc1/C=N\NC(=O)c1ccccc1O [N'-[(Z)-(2-ethoxyphenyl)methylidene]-2-hydroxybenzohydrazide (20)]
pIC50 [1]: 3.38 | pIC50 [2]: 3.93

CCCCOc1ccc(/C=N\NC(=O)c2ccccc2O)cc1 [N0-[(Z)-(4-butoxyphenyl)methylidene]-2-hydroxybenzohydrazide (7)]
pIC50 [1]: 4.81 | pIC50 [2]: 4.38

CC(C)c1ccc(/C=N\NC(=O)c2ccccc2O)cc1 [2-Hydroxy-N'-[(Z)-(4-isopropylphenyl)methylidene]benzohydrazide (12)]
pIC50 [1]: 4.40 | pIC50 [2]: 4.14

CSc1ccc(/C=N\NC(=O)c2ccccc2O)cc1 [2-Hydroxy-N'-{(Z)-[4-(methylsulfanyl)phenyl]methylidene} benzohydrazide (22)]
pIC50 [1]: 3.36

COc1ccc(/C=N\NC(=O)c2ccccc2O)cc1Br [N'-[(Z)-(3-bromo-4-methoxyphenyl)methylidene]-2-hydroxybenzohydrazide (17)]
pIC50 [1]: 4.70 | pIC50 [2]: 4.42

CC(C)(C)c1ccc(/C=N\NC(=O)c2ccccc2O)cc1 [N'-{(Z)-[4-(tert-butyl)phenyl]methylidene}-2-hydroxybenzohydrazide (13)]
pIC50 [1]: 4.03 | pIC50 [2]: 5.19

O=C(N/N=C\c1ccco1)c1ccccc1O [N'-[(Z)-2-furylmethylidene]-2-hydroxybenzohydrazide (11)]
pIC50 [2]: 3.38

O=C(N/N=C\c1ccc(O)cc1)c1ccccc1O [2-Hydroxy-N'-[(Z)-(4-hydroxyphenyl)methylidene]benzohydrazide (28)]
pIC50 [2]: 3.37

O=C(N/N=C\c1ccc(OCc2ccccc2)cc1)c1ccccc1O [N'-{(Z)-[4-(benzyloxy)phenyl]methylidene}-2-hydroxybenzohydrazide (3)]
pIC50 [1]: 5.09 | pIC50 [2]: 4.42

O=C(N/N=C\c1cc(F)ccc1Br)c1ccccc1O [N'-[(Z)-(2-bromo-5-fluorophenyl)methylidene]-2-hydroxybenzohydrazide (21)]
pIC50 [1]: 3.51 | pIC50 [2]: 3.57

COc1ccc(/C=N\NC(=O)c2ccccc2O)c(OC)c1 [N'-[(Z)-(2,4-dimethoxyphenyl)methylidene]-2-hydroxybenzohydrazide (9)]
pIC50 [2]: 3.53

COc1cccc(/C=N\NC(=O)c2ccccc2O)c1OC [N'-[(Z)-(2,3-dimethoxyphenyl)methylidene]-2-hydroxybenzohydrazide (15)]
pIC50 [2]: 4.21

O=C(N/N=C\c1ccc(F)c(Br)c1)c1ccccc1O [N'-[(Z)-(3-bromo-4-fluorophenyl)methylidene]-2-hydroxybenzohydrazide (25)]
pIC50 [1]: 3.51

CCOc1ccc(/C=N\NC(=O)c2ccccc2O)cc1 [N'-[(Z)-(4-ethoxyphenyl)methylidene]-2-hydroxybenzohydrazide (8)]
pIC50 [1]: 3.66 | pIC50 [2]: 3.93

O=C(N/N=C\c1c2ccccc2cc2ccccc12)c1ccccc1O [(Z)-N'-(anthracen-10-ylmethylene)-2-hydroxybenzohydrazide (10)]
pIC50 [1]: 5.39
